Paper PMC5046105, “Improved affinity at the cost of decreased specificity: a recurring theme in PDZ-peptide interactions” (Scientific Reports, 2016)
Ends that are not written are not given here.

How the values were obtained:
PDZØ9 = assay: Proteomic peptide-phage display (ProP-PD) selection, PDZØ9 as bait; parameters: species or system human; conditions: number of this peptide among 76 sequenced binding clones after round three of ProP-PD selection
Procedure: (§1) The peptide-phage library used in the selections consisted of 50,549 heptapeptides representing the C-terminal sequences of the human proteome, fused to the C-terminus of the major coat protein pVIII of the M13 phage. This library was developed and successfully used for the rapid isolation of potential cellular PDZ domain targets, as previously reported.
(§2) Individual binding clones were isolated and sequenced (see Table 1).
(§3) Peptide-phage selections against PDZØ9 and pWT PDZ2 were performed with a previously developed library of 50549 heptapeptides, representing all of the C-terminal sequences in the human proteome. Peptides are fused to the C-terminus of the gene-8 major coat protein of M13 phage and hereby referred to as the naïve peptide library. Each of the two selections was performed twice. First, the two lipoyl-PDZ proteins were used to coat 96-well Maxisorp microtiter plates (NUNC) by incubation overnight at 4 °C (15 μg of protein in 100 μl of PBS per well). For the first round of selection, two wells were used for each PDZ, whereas a single well was used for the following selections. In parallel, wells were coated with lipoyl domain alone in order to remove nonspecific binders by a preselection step. The following day, wells were blocked with 200 μl of 0.5% BSA in PBS for 1 h at 4 °C, and washed four times with PT buffer [PBS, 0.05% Tween-20] before addition of phages. Phage pools representing the naïve peptide library were diluted 50-fold in PBS, precipitated with PEG/NaCl [4% PEG-8000 and 0.5 M NaCl] by incubation for 10 min on ice, pelleted by centrifugation (10 min, 16000 × g), and resuspended in PBS. For each selection round, 100 μl of resuspended phage was added to the preselection wells and incubated for 1 h at 4 °C before transfer to the target wells in which they were incubated for 2 h at 4 °C. The wells were washed five times with PT buffer and bound phages were eluted by direct infection of bacteria through the addition of 100 μl log-phase Escherichia coli Omnimax (Invitrogen) in 2TY, followed by 30 min incubation at 37 °C with shaking. Phage production was initiated by the addition of M13K07 helper phage (New England Biolabs) to a final concentration of 10^10 phage/ml and continued incubation at 37 °C for 45 min. The cultures were then transferred to 10 ml 2TY containing 100 μg/ml carbenicillin, 30 μg/ml kanamycin, and 1 mM IPTG, and shaken overnight at 37 °C. The bacteria were pelleted by centrifugation (10 min, 5300 × g), and the phage-containing supernatant was transferred to a new tube in which phages were precipitated with PEG/NaCl as described above, pelleted by centrifugation (15 min, 5300 × g), and resuspended in 1 ml of PBS. The resuspended phages, hereby-denoted Øout, were then used for the next round of selection. A total of five rounds were carried out and the enrichment of phages specific for the target was monitored by analysing aliquots of Øout in a phage ELISA performed as described below. For each of the five rounds of the respective selection, 10 μg of target protein and lipoyl domain were individually coated in parallel wells using the same type of plate, procedure, and blocking the following day, as described for the selection rounds above. When the 200 μl of blocking solution had been aspirated, 100 μl of resuspended phage was added and incubated for 30 min at 4 °C.

pWT PDZ2 = assay: Proteomic peptide-phage display (ProP-PD) selection, pWT PDZ2 as bait; parameters: species or system human; conditions: number of this peptide among 71 sequenced binding clones after round three of ProP-PD selection
Procedure: as §1, §2, §3

pWT PDZ2 L391F (human) [1] = target: pWT PDZ2 L391F (human) (UniProt Q12959); assay: ITC; PGKETQL peptide titrated into pWT PDZ2 L391F; iTC200, 10 °C, 50 mM potassium phosphate, pH 7.5; 1:1 model; duplicate titrations, average parameters
Chain of pWT PDZ2 L391F (human) (Q12959 311-407, stated change not applied): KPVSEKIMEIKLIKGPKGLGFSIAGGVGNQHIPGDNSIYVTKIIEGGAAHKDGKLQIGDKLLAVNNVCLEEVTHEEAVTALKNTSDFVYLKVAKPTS

pWT PDZ2 K392M (human) = pWT PDZ2 K392M (human) (UniProt Q12959); assay: stopped-flow spectroscopy
Chain of pWT PDZ2 K392M (human) (Q12959 311-407, stated change not applied): as the sequence (Q12959 311-407, stated change not applied) above

[2] = target: Pseudo wild type SAP97 PDZ2 (second PDZ domain of synapse associated protein 97, I342W/C378A) (human) (UniProt Q12959); assay: stopped-flow spectroscopy
Chain of Pseudo wild type SAP97 PDZ2 (second PDZ domain of synapse associated protein 97, I342W/C378A) (human) (Q12959 311-407, stated change not applied): as the sequence (Q12959 311-407, stated change not applied) above

[3] = target: PDZØ9, engineered variant (L391F/K392M) of pWT SAP97 PDZ2 (human) (UniProt Q12959); assay: stopped-flow spectroscopy
Chain of PDZØ9, engineered variant (L391F/K392M) of pWT SAP97 PDZ2 (human) (Q12959 311-407, stated change not applied): as the sequence (Q12959 311-407, stated change not applied) above

pWT PDZ2 L391F (human) [4] = target: pWT PDZ2 L391F (human) (UniProt Q12959); assay: stopped-flow spectroscopy

Molecule | Prevalence, PDZØ9 (76) (PDZØ9) | Prevalence, pWT PDZ2 (71) (pWT PDZ2) | also measured
KGTETTL | 1 | – | –
AGRETTV | – | 1 | –
IKTETTV | 1 | 7 | –
WKHETTV | 4 | 5 | –
YKKETPL | 1 | – | –
WKNETTV | 1 | 1 | –
RAISTDV | 2 | – | –
WKSETTV | 1 | 1 | –
KIKETTV | 1 | 3 | –
AGKTTIL | 1 | – | –
Ac-PGKETQL [PGKETQL peptide (C-terminus of SO1C1_HUMAN)] | – | – | Kd (pWT PDZ2 L391F (human) [1]): 310 nM; stoichiometry N (pWT PDZ2 L391F (human) [1]): 0.76; koff (pWT PDZ2 K392M (human)): 48 s⁻¹; kon (pWT PDZ2 K392M (human)): 1.8e+07 M⁻¹ s⁻¹; koff [2]: 51 s⁻¹; kon [2]: 1.8e+07 M⁻¹ s⁻¹; koff [3]: 3.9 s⁻¹; kon [3]: 1.6e+07 M⁻¹ s⁻¹; koff (pWT PDZ2 L391F (human) [4]): 5 s⁻¹; kon (pWT PDZ2 L391F (human) [4]): 2e+07 M⁻¹ s⁻¹
